Results as given in patent US20080132522A1, “2-Substituted Pyrimidines, Method for Their Production and Their Use for Controlling Pathogenic Fungi” (BASF Aktiengesellschaft, priority 2004, published 2008).

Tests used:
Pyrenophora teres = test: Activity against net blotch of barley caused by Pyrenophora teres, 1 day protective application; type: in vivo, Pyrenophora [syn. Drechslera] teres; settings: 250 ppm; barley "Hanna"; after 6 days; untreated 90% infected
Method: The active compounds were prepared separately as a stock solution with 25 mg of active compound which was made up to 10 ml with a mixture of acetone and/or DMSO and the emulsifier Uniperol® EL (wetting agent having emulsifying and dispersing action based on ethoxylated alkylphenols) in a volume ratio solvent/emulsifier of 99 to 1. The solution was then made up to 100 ml with water. This stock solution was diluted to the active compound concentration stated below using the solvent/emulsifier/water mixture described. Activity Against Net Blotch of Barley Caused by Pyrenophora teres, 1 Day Protective Application Leaves of potted barley seedlings of the cultivar “Hanna” were sprayed to runoff point with an aqueous suspension having the concentration of active compounds stated below. 24 hours after the spray coating had dried on, the test plants were inoculated with an aqueous spore suspension of Pyrenophora [syn. Drechslera] teres, the net blotch pathogen. The test plants were then placed in a greenhouse at temperatures between 20 and 24° C. and 95 to 100% relative atmospheric humidity. After 6 days, the extent of the development of the disease was determined visually in % infection of the entire leaf area.

Alternaria solani = test: Activity against early blight of tomato caused by Alternaria solani; type: in vivo; settings: 250 ppm; tomato "Goldene Königin"; after 5 days; untreated 90% infected
Method: (§1) The active compounds were prepared separately as a stock solution with 25 mg of active compound which was made up to 10 ml with a mixture of acetone and/or DMSO and the emulsifier Uniperol® EL (wetting agent having emulsifying and dispersing action based on ethoxylated alkylphenols) in a volume ratio solvent/emulsifier of 99 to 1. The solution was then made up to 100 ml with water. This stock solution was diluted to the active compound concentration stated below using the solvent/emulsifier/water mixture described.
Activity Against Early Blight of Tomato Caused by Alternaria solani
Leaves of potted plants of the cultivar “Goldene Königin” were sprayed to runoff point with an aqueous suspension having the concentration of active compounds stated below. The next day, the leaves were inoculated with an aqueous spore suspension of Alternaria solani in 2% biomalt solution having a density of 0.17×10^6 spores/ml. The plants were then placed in a water-vapor-saturated chamber at temperatures of between 20 and 22° C. After 5 days, the disease on the leaves of the untreated, but infected control plants had developed to such an extent that the infection could be determined visually in %.

Botrytis cinerea = test: Activity against gray mold on bell pepper leaves caused by Botrytis cinerea, protective application; type: in vivo; settings: 250 ppm; bell pepper "Neusiedler Ideal Elite"; after 5 days; untreated 90% infected
Method: as §1
Activity Against Gray Mold on Bell Pepper Leaves Caused by Botrytis cinerea, Protective Application
Bell pepper seedlings of the cultivar “Neusiedler Ideal Elite” were, after 2-3 leaves were well-developed, sprayed to runoff point with an aqueous suspension having the concentration of active compound stated below. The next day, the treated plants were inoculated with a spore suspension of Botrytis cinerea which contained 1.7×10^6 spores/ml in a 2% strength aqueous biomalt solution. The test plants were then placed in a dark climatized chamber at 22-24° C. and high atmospheric humidity. After 5 days, the extent of the fungal infection on the leaves could be determined visually in %.

Row | Structure (SMILES) | infection of treated leaf areas (Pyrenophora teres) | infection of treated leaf areas (Alternaria solani) | melting point [°C] | infection of treated leaf areas (Botrytis cinerea)
1 | CC(C)Oc1nc(-n2cccn2)nc(Cl)c1-c1c(F)cc(F)cc1F [1), 4-Chloro-6-isopropoxy-2-(pyrazol-1-yl)-5-(2,4,6-trifluorophenyl)pyrimidine] | only little infection | only little infection | 106 to 107 | only little infection
2 | CON=C(N)c1nc(Cl)c(-c2c(F)cc(F)cc2F)c(OC(C)C)n1 [3), O-Methyl (4-chloro-6-isopropoxy-5-(2,4,6-trifluorophenyl)pyrimidin-2-yl)carbamidoxime] | only little infection | only little infection | – | only little infection
3 | CC(C)(C)Oc1nc(-c2ccccn2)nc(Cl)c1-c1c(F)cccc1Cl [4)] | only little infection | only little infection | – | only little infection
4 | CC(C)Oc1nc(C#N)nc(Cl)c1-c1c(F)cc(F)cc1F [5), 4-Chloro-2-cyano-6-isopropoxy-5-(2,4,6-trifluorophenyl)pyrimidine] | – | – | 32 | –
